Measured values taken from patent US12552854B2, “Peptides that block presentation of antigenic islet peptides by HLA-DQ8 and methods for treating type-1 diabetes” (Icahn School of Medicine at Mount Sinai, priority 2019, dated 2026).
“Also recorded” adds a separate entry of the source.

What was measured:
[1] = target: T1, recombinant HLA-DQ8 protein (Homo sapiens, UniProt P01909+P01920); assay: DELFIA immunoassay: inhibition of biotinylated InsB:9-23 binding to recombinant HLA-DQ8; conditions: for inhibition of InsB:9-23 binding to HLA-DQ8 (in words): D-peptides screened at 10 μM, recombinant HLA-DQ8
T1 construct: contained the extracellular portion of the DQA1*0301 α chain fused to the coiled-coil region of the basic leucine zipper domain of Fos; contained the extracellular portion of the DQB1*0302 β chain fused to the coiled-coil region of the basic leucine zipper domain of JunB; Fos leucine zipper (coiled-coil region) (C); TEV protease site (internal); His6; JunB leucine zipper (coiled-coil region) (C); FLAG; host or cells: baculovirus system
Source text: HLA-DQ8 protein was produced using the baculovirus system. Two constructs were designed for both the α and the β chains of HLA-DQ8. The β chain construct contained the extracellular portion of the DQB1*0302 β chain fused to the coiled-coil region of the basic leucine zipper domain of JunB, and the α chain construct contained the extracellular portion of the DQA1*0301 α chain fused to the coiled-coil region of the basic leucine zipper domain of Fos. […] A tobacco etch virus protease cutting site was introduced in each chain to allow removal of the dimerization motif. The JunB and Fos dimerization motifs were added in order to allow the α and β chains to dimerize and form the final HLA-DQ8 protein (FIG. 12A). These constructs were used to produce the HLA-DQ8 protein in a baculovirus system using the Life Technologies Baculovirus protein production custom services (Carlsbad, CA).
D-peptides were produced by Fisher Scientific (Hanover Park, IL) in dry form and dissolved in PBS. All D-peptides were screened at a concentration of 10 μM for their ability to bind to the HLA-DQ8 pocket and block it from binding the InsB:9-23 peptide using a unique immunoassay (23). […] After washing 4 times, DELFIA Europium-labeled streptavidin (PerkinElmer) diluted in DELFIA assay buffer (PerkinElmer) was added for 30 minutes and shaken at slow speed at room temperature. Since the InsB:9-23 peptide was biotinylated the complex HLA-DQ8-InsB:9-23 peptide could be detected using the Europium-labeled streptavidin. After washing for 6 times, DELFIA Enhancement Solution was added for 1 hour or until the optimal signal was reached. Time-resolved fluorescence was measured using the BMG reader (BMG Labtech, Cary, NC). The experiment was performed in triplicate. As a negative control biotinylated InsB:9-23 peptide that was not pre-incubated with HLA-DQ8 was added to the nickel coated plates.
Immunoassay was performed as described above.

[2] = target: T2, HLA-DQ8 expressed on BSM cells (Homo sapiens, UniProt P01909+P01920, F237L); assay: Flow cytometric analysis of InsB:9-23 peptide binding to BSM cells; assay type: cell-based; conditions: flow cytometry
T2 construct: BSM cells that express HLA-DQ8 on their surface; host or cells: BSM cells (B-cell line homozygous for HLA-DQ8)
Procedure: N-terminal biotinylated peptide InsB:9-23 (or gliadin) were used to test for binding to BSM cells that express HLA-DQ8 on their surface. APC-streptavidin (BD Biosciences, Franklin Lakes, NJ) were used to detect the biotinylated peptides. […] After 24 hours incubation, cells were stained with PE-mouse anti-human HLA-DQ8 (BD Biosciences) and APC-streptavidin to detect the percent binding of the peptide to BSM cells with or without D-peptides. Percent binding was analyzed by flow cytometry.

[3] = tested on: splenocytes isolated from SJL-DQ8 mice; assay: Ex vivo CFSE T-cell proliferation, splenocytes of InsB:9-23-immunized SJL-DQ8 mice; assay type: cell-based, mouse; conditions: all peptides at 50 μg/ml; 5 days
Source text: ID NO: 23) and reverse primer [NT]

[4] = tested on: PBMCs isolated from DQ8 positive T1D patients; assay: Cytokine production in PBMCs from DQ8 positive recent-onset T1D patients; assay type: cell-based, human; conditions: stimulated with InsB:9-23 for 48 h; all peptides at 50 μg/ml
Source text: (§1) Subjects with a diagnosis of T1D within the previous 2 years were recruited from the Pediatric Endocrine clinic at Children Hospital at Montefiore and from the adult Endocrine clinics at Montefiore and Mount Sinai Hospitals (New York). Peripheral blood mononuclear cells (PBMCs) were isolated from heparinized blood using Ficoll-Paque (GE Healthcare); freshly isolated PBMCs were used for T-cell activation studies and for genotyping. DNA purified from the blood of the patients was typed for HLA-DQ as previously described (32). PBMCs isolated from DQ8 positive patients were seeded in 96 well plates with 200 μl medium (RPMI, 10% FBS). […] The stimulated PBMCs were assessed for cytokine production and T-cell proliferation as described above for mouse splenocytes. DQ8 typed patients with long standing T1D (>10 years) were used as negative controls in the experiments (no T-cell responses to islet peptides).

[5] = tested on: PBMCs isolated from DQ8 positive T1D patients; assay: CFSE T-cell proliferation in PBMCs from DQ8 positive recent-onset T1D patients; assay type: cell-based, human; conditions: all peptides at 50 μg/ml
Source text: as §1

[6] = tested on: T-cells of InsB:9-23-immunized SJL-DQ8 mice; assay: In vivo D-peptide treatment of InsB:9-23-immunized SJL-DQ8 humanized mice; parameters: species or system mouse; conditions: 200 μg intraperitoneally on days 4, 7, 11 and 14; sacrifice day 17
[7] = Metabolic stability in mouse hepatocytes; assay type: in vitro ADME; conditions: mouse, hepatocytes; 1 μM; read-out: half-life after incubation with mouse hepatocytes (converted)
Procedure: Cryopreserved mouse hepatocytes were thawed at 37° C. in water bath until the ice was almost melted (˜90 seconds). The suspensions from the each were immediately transferred to 50 mL centrifuge tubes containing pre-warmed thawing media (VitroGRO HT Medium, Thawing) at 37° C. The cell suspensions were centrifuged at 50 g for 5 minutes at 4° C. (SYS679). Supernatants were discarded and the pellets were re-suspended in pre-warmed 3 mL incubation media (from in vitroGRO HT Medium, Incubation) at 37° C. The percentages of viable cells in the suspension were determined by using the Trypan Blue stain method (20 μL of tryptan blue and 20 μL of cell suspension) DF=2. Cryo mouse hepatocyte (Bioreclamation, lot #CHV) viability was 72.62% (viable/dead=305/115), and the total cells were 4.57 million. 1.57 mL of incubation media was added to cell concentration to get 1 million cells/mL. 10 μl of 100 μM test compounds stock in ACN:H2O (v:v, 1:1) was added to 990 μl of hepatocyte suspension/incubation media in a 24-well plate. 10 μl of 20 μM Midazolam was added to 990 μl of hepatocyte suspension as a positive control in a 24-well plate. The cells were incubated in a 37° C. incubator (SYS431) for 4 hours. 50 μl of aliquots (n=2) were added to 800 ul of MeOH:water (v:v, 5:95) at 0, 15, 30, 60, 120, 180 and 240 minutes. For all samples, 20 μL of internal standard (200 ng/mL tolbutamide) was added to the solution in water. The samples were vortexed vigorously for 5 minutes and then loaded onto a pre-conditioned Oasis HLB 96-well SPE plate (10 mg, […]). The Oasis HLB 96-well SPE plate was conditioned with 1 mL of methanol and then rinsed with 1 mL of water before the samples were loaded. Once loaded onto the Oasis HLB 96-well SPE plate, residual solution was removed by vacuum. The samples were eluted into a clean 96-well plate with 800 μL of 0.1% formic acid in 70% acetonitrile. The samples were evaporated to dryness under nitrogen at ambient temperature using a TurboVap 96 Concentration Workstation (Caliper Life Sciences). […]

[8] = Half-life and Intrinsic Clearance of RI-CT and RI-EXT (1 µM) after Incubation with Mouse Hepatocytes
Procedure: Table printed on a drawing sheet, FIG. 20
Title: Half-life and Intrinsic Clearance of RI-CT and RI-EXT (1 µM) after Incubation with Mouse Hepatocytes
First reader's note: The footnotes are printed inside the table frame as its last two rows; midazolam is a small-molecule positive control.

[9] = tested on: 5KC cells (TCR specific for the InsB:9-23-DQ8 complex) with BSM cells; assay: Mixed lymphocyte reaction (BSM cells loaded with InsB:9-23 and 5KC cells), IL-2 by Luminex; assay type: cell-based, human, murine; conditions: peptide loaded on BSM cells
Procedure: BSM cells homozygous for HLA-DQ8 (European Collection of Authenticated Cell Cultures) were cultured in RPMI growth medium (ATCC, Manassas, VA) supplied with 10% fetal bovine serum (FBS) (Sigma), 1% penicillin-streptomycin (Corning, NY), and 2 mM glutamine (Corning). Cells were grown at 37° C., 5% CO2, and passaged 1-2 times a week. 5KC cells (generously provided by Dr. Maki Nakayama, University of Colorado, Denver) were produced and cultured as described (25, 26).
To functionally test in vitro D-peptides ability to block T-cell activation, 10^6 BSM cells were incubated over night with 200 μg/ml InsB:9-23 (or with scrambled InsB:9-23 or gliadin as negative peptides); on the following day InsB:9-23 loaded BSM cells were washed twice with phosphate buffered saline (PBS) to remove excess peptide and RI-CT or RI-EXT peptides (or scrambled RI-CT/RI-EXT, as negative controls) were added to the cells. Following 2 hours of incubation at 37° C. 5KC cells were added to the mixture BSM-InsB:9-23-D-peptides (1:1 proportion) and incubated overnight. 5KC cells are transfected with human T-cell receptor that is activated only upon engagement with HLA-DQ8-InsB:9-23 complex. […] After overnight incubation of the 5KC cells with BSM cells loaded with InsB:9-23 and with different D-peptides IL-2 production was measured in the supernatants by Luminex assay. […]

T2 sequence (P01920 33-261 A45G/Y58L/E77G/D89A/H199R/T217I, other chains not shown): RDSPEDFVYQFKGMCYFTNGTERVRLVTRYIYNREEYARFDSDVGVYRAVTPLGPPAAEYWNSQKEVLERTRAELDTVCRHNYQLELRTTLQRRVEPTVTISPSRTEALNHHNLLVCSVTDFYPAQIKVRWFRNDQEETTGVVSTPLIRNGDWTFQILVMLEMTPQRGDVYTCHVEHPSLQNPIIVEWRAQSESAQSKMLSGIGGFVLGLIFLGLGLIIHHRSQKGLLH

| Molecule | inhibition of InsB:9-23 binding to HLA-DQ8 (in words) [1] | inhibition of InsB:9-23 binding to HLA-DQ8 (in words) ([1]; listed as #10) | dose dependence of the inhibition of InsB:9-23 binding to HLADQ8 ([1]; serially diluted to 0.5 μM, FIG. 3D) | inhibition of the binding of InsB:9-23 to DQ8 expressed on BSM cells (in words) ([2]; 10 μM peptide) | T-cell proliferation induced by InsB:9-23 (CFSE assay), SJL-DQ8 splenocytes [3] | IFN-γ production, PBMCs of DQ8 positive T1D patients [4] | IL-2 production, PBMCs of DQ8 positive T1D patients [4] | T-cell proliferation induced by InsB:9-23 (CFSE assay), PBMCs of DQ8 positive T1D patients [5] | activation of T-cells by InsB:9-23 in immunized mice (IL-2, IFN-γ of splenocytes) [6] | half-life [7] | CLint (mL/min/million cells) [8] | t1/2 [8] | binding to the recombinant HLA-DQ8 protein ([1]; biotinylated peptide, compared to scrambled InsB:9-23, FIG. 3B) | binding of InsB:9-23 to HLA-DQ8 positive BSM cells ([2]; incubated without D-peptides) | induction of IL-2 secretion in 5KC cells / activation of 5KC cells [9] |
| --- | --- | --- | --- | --- | --- | --- | --- | --- | --- | --- | --- | --- | --- | --- | --- |
| CC(C)C[C@@H](NC(=O)[C@@H](Cc1ccc(O)cc1)NC(=O)[C@@H](CC(C)C)NC(=O)[C@H](NC(=O)[C@@H](CS)NC(=O)CNC(=O)[C@@H](CCC(=O)O)NC(=O)[C@@H](CCCNC(=N)N)NC(=O)CNC(=O)CNC(=O)[C@@H](Cc1ccccc1)NC(=O)[C@H](N)Cc1ccccc1)C(C)C)C(=O)N[C@H](C)C(=O)N[C@H](CCC(=O)O)C(=O)N[C@@H](C(=O)N[C@H](CC(C)C)C(=O)N[C@H](Cc1c[nH]cn1)C(=O)N[C@H](CO)C(=O)NCC(=O)O)C(C)C [RI-EXT] | significant inhibition | best extended sequence | dose-dependent | inhibits the binding | significantly suppressed; also recorded: significantly decreased | significantly suppressed; also recorded: significantly decreased | significantly suppressed; also recorded: significantly decreased | significantly suppressed; also recorded: significantly decreased | significantly blocked | ~1 h | 0.012 mL/min/million cells | 0.963 h |  |  |  |
| SHLVEALYLVCGERG [InsB:9-23, diabetogenic insulin peptide, reference compound] |  |  |  |  |  |  |  |  |  |  |  |  | significant binding | 84.8% | dose-dependent manner |
